US6479056B1, “Live vaccine constituting minor risk for humans” (priority 1994, dated 2002)

Test system: wild strains
Assay: MHK of antibiotics for wild strains
Type: cell-based, Salmonella

O=C(N[C@H](CO)[C@H](O)c1ccc([N+](=O)[O-])cc1)C(Cl)Cl [chloramphenicol]
MHK: (Berlin-Chemie) 2.0 ug/ml

O=C(O)c1cn(C2CC2)c2cc(N3CCNCC3)c(F)cc2c1=O [ciprofloxacin]
MHK: (Bayer) wild strains MHK 0.05 ug/ml

C[C@H]1c2cccc(O)c2C(=O)C2=C(O)[C@]3(O)C(=O)C(C(N)=O)=C(O)[C@@H](N(C)C)[C@@H]3[C@@H](O)[C@@H]21 [doxycycline]
MHK: (Jenapharm) wild strains MHK 4.0 ug/ml

CC[C@H]1OC(=O)[C@H](C)[C@@H](O[C@H]2C[C@@](C)(OC)[C@@H](O)[C@H](C)O2)[C@H](C)[C@@H](O[C@@H]2O[C@H](C)C[C@H](N(C)C)[C@H]2O)[C@](C)(O)C[C@@H](C)C(=O)[C@H](C)[C@@H](O)[C@]1(C)O [erythromycin]
MHK: (Abbott) wild strains MHK 60.0 ug/ml

CCn1cc(C(=O)O)c(=O)c2ccc(C)nc21 [nalidixic acid]
MHK: (CHINOIN, Budapest) wild strains MHK 6.2 ug/ml

[H]/N=C(/N)N[C@H]1[C@H](O)[C@@H](O)[C@H](O[C@@H]2O[C@@H](C)[C@](O)(C=O)[C@H]2O[C@@H]2O[C@@H](CO)[C@H](O)[C@@H](O)[C@@H]2NC)[C@@H](N/C(N)=N\[H])[C@@H]1O [streptomycin]
MHK: (Jenapharm) wild strains MHK 6.2 ug/ml
